According to ChEMBL document CHEMBL1201862, “PubChem BioAssay data set” (2004):
Calls of active or inactive are those of the source.

Assays:
HEK293 [1] = experiment: NOD1 signaling inhibitors, primary screen, cell-based, luminescence, uHTS (AID 1578); type: functional; conditions: Homo sapiens
BJ [2] = experiment: cytotoxicity toward BJ-TERT fibroblasts, dose response, cell-based, RAS-independent, luminescence (AID 1933); type: functional; conditions: Homo sapiens
HEK293 [3] = experiment: cells; type: functional, cell-based; conditions: Homo sapiens
BJ [4] = experiment: cells; type: functional, cell-based; conditions: Homo sapiens
HEK293 [5] = experiment: cells; type: functional, cell-based; conditions: Homo sapiens; remark: listed apart in the source
[6] = biological target: Nucleotide-binding oligomerization domain-containing protein 2 (Homo sapiens, UniProt Q9HC29); experiment: NOD2 signaling inhibitors, cell-based, luminescence, uHTS, HEK293 (AID 1566); type: functional
Sequence of Nucleotide-binding oligomerization domain-containing protein 2 (Q9HC29 whole entry, the tested form may be a part): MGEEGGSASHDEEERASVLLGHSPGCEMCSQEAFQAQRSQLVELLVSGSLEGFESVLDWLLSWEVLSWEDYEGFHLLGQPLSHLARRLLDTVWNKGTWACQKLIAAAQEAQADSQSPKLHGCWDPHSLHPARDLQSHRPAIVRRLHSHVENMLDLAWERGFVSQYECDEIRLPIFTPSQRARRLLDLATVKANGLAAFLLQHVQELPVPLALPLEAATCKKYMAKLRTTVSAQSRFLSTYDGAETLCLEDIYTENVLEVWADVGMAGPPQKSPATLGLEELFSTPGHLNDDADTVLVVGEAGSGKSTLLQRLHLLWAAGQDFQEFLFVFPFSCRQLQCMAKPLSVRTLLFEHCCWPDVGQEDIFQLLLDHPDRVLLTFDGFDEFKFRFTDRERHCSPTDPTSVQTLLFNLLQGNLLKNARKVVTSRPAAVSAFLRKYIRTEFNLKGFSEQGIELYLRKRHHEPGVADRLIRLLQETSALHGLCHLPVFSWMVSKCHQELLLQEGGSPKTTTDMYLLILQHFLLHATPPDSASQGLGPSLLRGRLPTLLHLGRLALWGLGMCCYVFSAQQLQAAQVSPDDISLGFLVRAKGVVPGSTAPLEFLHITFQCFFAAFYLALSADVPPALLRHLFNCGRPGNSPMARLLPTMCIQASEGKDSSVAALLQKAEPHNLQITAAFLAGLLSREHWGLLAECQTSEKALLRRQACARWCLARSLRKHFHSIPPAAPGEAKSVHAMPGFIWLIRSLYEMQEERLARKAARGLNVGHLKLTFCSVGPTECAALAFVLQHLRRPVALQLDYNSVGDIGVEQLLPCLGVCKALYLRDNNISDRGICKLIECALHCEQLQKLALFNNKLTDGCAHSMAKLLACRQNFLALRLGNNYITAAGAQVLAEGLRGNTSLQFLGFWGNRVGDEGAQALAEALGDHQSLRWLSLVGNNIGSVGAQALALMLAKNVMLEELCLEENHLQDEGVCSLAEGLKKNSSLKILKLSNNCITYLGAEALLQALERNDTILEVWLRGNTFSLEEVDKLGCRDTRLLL

HEK293 [7] = experiment: NOD2 signaling inhibitors in MDP-stimulated cells, cell-based, uHTS, luminescence (AID 2001); type: functional; conditions: Homo sapiens
HEK293 [8] = experiment: cells; type: functional, cell-based; conditions: Homo sapiens; remark: listed apart in the source
[9] = microbe, parasite or virus in culture; type: functional; conditions: Mycobacterium tuberculosis
BJ [10] = experiment: cytotoxicity toward BJ-TERT-LT-ST fibroblasts, dose response, cell-based, RAS-independent, luminescence (AID 1935); type: functional; conditions: Homo sapiens;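 further: BJ fibroblasts immortalized with TERT plus LT and ST oncogenes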
[11] = cytotoxicity toward DRD oncogenic fibroblasts, dose response, cell-based, non-viral oncogenic, luminescence (AID 1934); type: functional; conditions: Homo sapiens
[12] = biological target: DNA damage-inducible transcript 3 protein (Mus musculus, UniProt P35639); type: functional, Cricetulus griseus
Sequence of DNA damage-inducible transcript 3 protein (P35639 whole entry): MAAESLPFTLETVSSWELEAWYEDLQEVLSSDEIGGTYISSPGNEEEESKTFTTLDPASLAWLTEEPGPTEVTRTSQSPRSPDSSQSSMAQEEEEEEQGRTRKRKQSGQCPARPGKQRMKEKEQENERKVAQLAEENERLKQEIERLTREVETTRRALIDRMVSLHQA

[13] = biological target: T1, Microphthalmia-associated transcription factor (Homo sapiens, UniProt O75030); experiment: TRPM1 promoter luciferase signal decrease, dose response, MITF inhibitor project, cell-based, SK-MEL-5, cherry-picked, set 3 (AID 493073); type: functional
T1 sequence (O75030 whole entry): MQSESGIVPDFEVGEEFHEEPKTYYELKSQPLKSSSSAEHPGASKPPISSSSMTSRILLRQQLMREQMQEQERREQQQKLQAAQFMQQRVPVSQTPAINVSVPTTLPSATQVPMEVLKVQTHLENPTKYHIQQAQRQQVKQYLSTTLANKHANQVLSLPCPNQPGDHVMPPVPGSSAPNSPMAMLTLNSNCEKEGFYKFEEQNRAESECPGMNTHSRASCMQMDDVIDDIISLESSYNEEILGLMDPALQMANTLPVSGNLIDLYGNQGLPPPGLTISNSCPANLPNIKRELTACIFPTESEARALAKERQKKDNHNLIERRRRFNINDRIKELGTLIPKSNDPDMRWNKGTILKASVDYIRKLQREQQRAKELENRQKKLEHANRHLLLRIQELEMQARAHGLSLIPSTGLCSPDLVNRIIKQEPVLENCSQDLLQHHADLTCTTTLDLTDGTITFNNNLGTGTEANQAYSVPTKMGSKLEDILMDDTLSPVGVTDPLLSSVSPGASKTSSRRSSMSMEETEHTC

[14] = biological target: T2, Replicative DNA helicase DnaB (Mycobacterium tuberculosis, UniProt P9WMR3); experiment: DnaB intein splicing inhibitors, dose response, biochemical, cell-free fluorescence (AID 449749); type: functional
T2 sequence (P9WMR3 whole entry): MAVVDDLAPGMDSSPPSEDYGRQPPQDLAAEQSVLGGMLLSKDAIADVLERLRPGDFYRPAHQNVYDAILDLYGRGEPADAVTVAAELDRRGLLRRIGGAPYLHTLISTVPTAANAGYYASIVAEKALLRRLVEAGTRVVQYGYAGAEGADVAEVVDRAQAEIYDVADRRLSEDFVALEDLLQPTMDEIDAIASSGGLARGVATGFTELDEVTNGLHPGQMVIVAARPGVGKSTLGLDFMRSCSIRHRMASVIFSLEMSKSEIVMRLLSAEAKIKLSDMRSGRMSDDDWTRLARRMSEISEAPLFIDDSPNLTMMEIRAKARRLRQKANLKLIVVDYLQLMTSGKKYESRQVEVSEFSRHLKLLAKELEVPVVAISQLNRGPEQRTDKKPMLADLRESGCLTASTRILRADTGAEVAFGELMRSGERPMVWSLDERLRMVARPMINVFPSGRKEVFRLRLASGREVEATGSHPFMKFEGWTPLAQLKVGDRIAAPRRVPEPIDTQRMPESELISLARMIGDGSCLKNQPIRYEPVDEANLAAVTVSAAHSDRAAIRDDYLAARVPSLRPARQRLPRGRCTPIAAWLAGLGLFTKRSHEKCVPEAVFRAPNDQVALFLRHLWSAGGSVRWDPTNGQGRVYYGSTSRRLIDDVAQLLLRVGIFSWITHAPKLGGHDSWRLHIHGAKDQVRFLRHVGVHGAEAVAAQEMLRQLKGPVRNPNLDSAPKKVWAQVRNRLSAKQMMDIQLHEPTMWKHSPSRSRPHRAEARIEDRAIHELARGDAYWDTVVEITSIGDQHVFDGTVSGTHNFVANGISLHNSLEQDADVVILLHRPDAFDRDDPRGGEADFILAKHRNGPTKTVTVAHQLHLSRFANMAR

Protein RecA = biological target: T3, Protein RecA (Mycobacterium tuberculosis, UniProt P9WHJ3); experiment: Fluorescence Cell-Free Homogeneous Dose Retest to Identify Inhibitors of RecA-Intein Splicing Activity. [Related pubchem assays (depositor defined):AID2097, AID2223, AID489010, AID492950]; type: functional
T3 sequence (P9WHJ3 whole entry): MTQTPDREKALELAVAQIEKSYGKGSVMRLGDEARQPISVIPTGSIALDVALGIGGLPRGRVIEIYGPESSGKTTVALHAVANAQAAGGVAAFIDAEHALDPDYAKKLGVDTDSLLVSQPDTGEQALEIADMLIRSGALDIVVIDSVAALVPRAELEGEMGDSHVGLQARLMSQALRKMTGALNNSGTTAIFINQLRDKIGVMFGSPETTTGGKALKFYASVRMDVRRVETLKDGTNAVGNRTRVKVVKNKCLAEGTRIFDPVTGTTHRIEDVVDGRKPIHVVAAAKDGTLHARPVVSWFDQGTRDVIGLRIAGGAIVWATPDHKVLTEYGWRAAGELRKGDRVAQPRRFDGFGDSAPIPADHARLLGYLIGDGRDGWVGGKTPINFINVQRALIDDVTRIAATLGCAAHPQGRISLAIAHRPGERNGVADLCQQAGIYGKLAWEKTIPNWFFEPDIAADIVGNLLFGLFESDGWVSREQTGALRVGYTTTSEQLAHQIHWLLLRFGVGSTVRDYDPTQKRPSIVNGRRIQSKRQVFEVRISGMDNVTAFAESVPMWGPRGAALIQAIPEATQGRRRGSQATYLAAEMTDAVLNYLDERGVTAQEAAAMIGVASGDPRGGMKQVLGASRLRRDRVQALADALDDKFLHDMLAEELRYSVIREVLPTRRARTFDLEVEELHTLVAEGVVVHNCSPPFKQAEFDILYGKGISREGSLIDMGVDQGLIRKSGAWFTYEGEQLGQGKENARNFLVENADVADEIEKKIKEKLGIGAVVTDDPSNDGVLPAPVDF

[15] = biological target: T4, Tyrosine-protein phosphatase non-receptor type 7 (Homo sapiens, UniProt P35236); experiment: redox-dependent HePTP inhibition, mechanism study, biochemical, fluorescence (AID 2068); type: functional
T4 sequence (P35236 whole entry): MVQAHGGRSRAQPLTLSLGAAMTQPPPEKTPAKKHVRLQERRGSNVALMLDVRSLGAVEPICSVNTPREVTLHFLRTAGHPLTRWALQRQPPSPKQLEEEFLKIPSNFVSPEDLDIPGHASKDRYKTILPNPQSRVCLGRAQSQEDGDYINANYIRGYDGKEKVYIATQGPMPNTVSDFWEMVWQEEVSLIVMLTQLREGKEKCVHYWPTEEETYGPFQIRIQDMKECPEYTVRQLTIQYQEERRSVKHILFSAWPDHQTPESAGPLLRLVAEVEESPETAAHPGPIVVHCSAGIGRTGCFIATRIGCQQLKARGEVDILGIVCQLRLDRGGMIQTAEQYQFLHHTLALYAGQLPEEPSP

[16] = biological target: Dual specificity protein phosphatase 3 (Homo sapiens, UniProt P51452); experiment: SAR VHR1 Fluorescent Assay for In Vitro dose response studies Set 2. [Related pubchem assays (depositor defined):AID1654, AID1661, AID1878]; type: functional
Sequence of Dual specificity protein phosphatase 3 (P51452 whole entry): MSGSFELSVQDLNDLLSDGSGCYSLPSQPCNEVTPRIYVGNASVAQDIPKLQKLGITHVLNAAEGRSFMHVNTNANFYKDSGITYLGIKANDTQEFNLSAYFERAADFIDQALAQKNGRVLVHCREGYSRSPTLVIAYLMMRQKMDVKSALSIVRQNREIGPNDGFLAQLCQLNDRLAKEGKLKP

[17] = biological target: T5, Dual specificity protein phosphatase 6 (Rattus norvegicus, UniProt Q64346); type: functional;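 further: confirmatory in vitro dose-response testing of MKP-3 inhibition; recombinant His-tagged MKP-3 made in E. coli BL21 with OMFP substrate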
T5 sequence (Q64346 whole entry): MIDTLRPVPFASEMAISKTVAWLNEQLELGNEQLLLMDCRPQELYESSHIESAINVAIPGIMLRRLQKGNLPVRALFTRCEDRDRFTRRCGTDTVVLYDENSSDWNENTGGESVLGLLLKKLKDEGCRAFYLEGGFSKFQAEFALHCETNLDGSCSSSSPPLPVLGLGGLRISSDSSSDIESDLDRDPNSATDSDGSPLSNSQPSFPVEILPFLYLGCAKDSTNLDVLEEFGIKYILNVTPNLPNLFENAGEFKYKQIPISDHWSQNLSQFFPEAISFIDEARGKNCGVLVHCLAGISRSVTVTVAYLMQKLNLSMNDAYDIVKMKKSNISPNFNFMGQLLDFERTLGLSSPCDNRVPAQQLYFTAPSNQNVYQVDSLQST

Ion channel NompC = Ion channel NompC (Danio rerio, UniProt Q7T1G6); experiment: Dose response cell-based high-throughput screening assay for agonists of the transient receptor potential channel N1 (TRPN1). [Related pubchem assays (depositor defined):AID1424, AID1448]; type: functional
Sequence of Ion channel NompC (Q7T1G6 whole entry): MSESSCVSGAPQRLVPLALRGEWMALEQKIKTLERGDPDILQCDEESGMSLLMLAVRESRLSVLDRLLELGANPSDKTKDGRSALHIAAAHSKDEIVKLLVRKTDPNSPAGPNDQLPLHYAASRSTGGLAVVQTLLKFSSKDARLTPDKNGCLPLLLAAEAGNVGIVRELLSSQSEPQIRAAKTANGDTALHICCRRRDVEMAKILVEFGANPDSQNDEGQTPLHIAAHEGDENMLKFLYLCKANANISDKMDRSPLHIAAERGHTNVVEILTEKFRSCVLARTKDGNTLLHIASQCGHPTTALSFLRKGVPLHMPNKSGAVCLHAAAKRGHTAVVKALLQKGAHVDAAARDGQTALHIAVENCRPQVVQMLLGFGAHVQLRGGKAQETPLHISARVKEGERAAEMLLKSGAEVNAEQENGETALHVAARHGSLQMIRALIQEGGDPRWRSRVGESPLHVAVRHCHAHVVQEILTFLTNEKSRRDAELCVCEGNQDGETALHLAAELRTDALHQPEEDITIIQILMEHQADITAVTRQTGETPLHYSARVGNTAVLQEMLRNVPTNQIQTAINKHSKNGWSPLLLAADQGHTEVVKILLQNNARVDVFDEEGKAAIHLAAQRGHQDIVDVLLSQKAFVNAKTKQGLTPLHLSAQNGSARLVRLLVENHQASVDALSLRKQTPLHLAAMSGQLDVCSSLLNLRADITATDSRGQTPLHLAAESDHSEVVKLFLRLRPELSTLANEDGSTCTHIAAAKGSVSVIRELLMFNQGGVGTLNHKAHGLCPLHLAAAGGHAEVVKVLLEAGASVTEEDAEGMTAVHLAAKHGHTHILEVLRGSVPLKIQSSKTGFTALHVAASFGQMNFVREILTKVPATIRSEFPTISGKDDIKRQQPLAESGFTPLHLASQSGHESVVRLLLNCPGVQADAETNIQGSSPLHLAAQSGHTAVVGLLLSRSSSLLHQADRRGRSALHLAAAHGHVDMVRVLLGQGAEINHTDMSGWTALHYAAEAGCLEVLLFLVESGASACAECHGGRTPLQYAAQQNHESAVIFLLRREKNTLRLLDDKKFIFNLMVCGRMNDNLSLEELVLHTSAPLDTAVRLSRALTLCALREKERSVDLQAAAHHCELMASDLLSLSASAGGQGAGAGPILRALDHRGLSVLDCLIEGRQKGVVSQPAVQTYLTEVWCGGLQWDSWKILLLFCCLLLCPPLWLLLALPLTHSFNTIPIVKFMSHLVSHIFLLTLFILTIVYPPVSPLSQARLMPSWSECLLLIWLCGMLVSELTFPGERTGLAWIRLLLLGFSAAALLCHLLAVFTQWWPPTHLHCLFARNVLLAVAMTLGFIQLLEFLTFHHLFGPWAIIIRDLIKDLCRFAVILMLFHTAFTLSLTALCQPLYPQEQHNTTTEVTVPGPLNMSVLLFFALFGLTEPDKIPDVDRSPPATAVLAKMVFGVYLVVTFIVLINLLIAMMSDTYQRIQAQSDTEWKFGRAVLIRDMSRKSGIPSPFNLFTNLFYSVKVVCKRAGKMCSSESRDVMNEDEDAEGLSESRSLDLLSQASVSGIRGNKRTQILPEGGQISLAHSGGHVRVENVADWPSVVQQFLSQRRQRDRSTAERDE

Mucolipin-3 = Mucolipin-3 (Homo sapiens, UniProt Q8TDD5); experiment: Fluorescence counterscreen assay for […] agonists: dose response cell-based high-throughput screening assay to identify agonists of the transient receptor potential channel ML3 (TRPML3). [Related pubchem assays: 1424, 1448 ]; type: functional
Sequence of Mucolipin-3 (Q8TDD5 whole entry): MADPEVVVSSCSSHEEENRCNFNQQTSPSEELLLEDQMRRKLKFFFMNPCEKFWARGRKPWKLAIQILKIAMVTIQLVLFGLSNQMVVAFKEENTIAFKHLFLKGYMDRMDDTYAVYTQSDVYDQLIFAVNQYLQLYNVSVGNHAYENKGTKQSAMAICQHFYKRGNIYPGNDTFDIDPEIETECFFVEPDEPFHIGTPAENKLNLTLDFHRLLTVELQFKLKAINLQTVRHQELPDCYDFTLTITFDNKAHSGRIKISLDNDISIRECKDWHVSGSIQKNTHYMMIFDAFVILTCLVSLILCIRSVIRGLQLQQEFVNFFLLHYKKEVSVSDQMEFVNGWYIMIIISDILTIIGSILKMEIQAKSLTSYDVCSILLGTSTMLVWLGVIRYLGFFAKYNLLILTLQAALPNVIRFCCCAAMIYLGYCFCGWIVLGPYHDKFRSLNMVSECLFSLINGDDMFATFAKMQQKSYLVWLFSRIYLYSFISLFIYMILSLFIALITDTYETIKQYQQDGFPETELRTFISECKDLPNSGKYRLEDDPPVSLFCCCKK

In the case of `O=C(CCl)Nc1cn(-c2ccccc2)nc1-c1ccccc1`, the EC50 (HEK293 [1]) is reported as 4.78 µM (active), the EC50 (BJ [2]) is reported as 8.36 µM (active) and the IC50 (HEK293 [3]) is reported as 5.28 µM (active). The EC50 (BJ [4]) was 14.4 µM (active), the IC50 (HEK293 [5]) was > 20 µM (inactive) and the EC50 [6] was > 20 µM (inactive). The IC50 (HEK293 [7]) was 9.25 µM (active), the IC50 (HEK293 [8]) was > 20 µM (inactive) and the CC50 [9] was 6.92 µM (active). For the same compound, the EC50 (BJ [10]) was > 150 µM (inconclusive), the EC50 [11] was 16.2 µM (active) and the “Absolute IC50 (CHOP)” value [12] was 10 µM. For the same compound, the AC50 [13] was 14.5 µM (active), the AC50 [14] was 13.1 µM (active) and the EC50 (Protein RecA) was 6.32 µM (active).

For `Cc1ccc(NC(=O)CN2C(=O)S/C(=C\c3ccc(C(=O)O)cc3)C2=O)cc1`, the IC50 [15] was 14.4 µM (active), the IC50 [16] was > 100 µM (inactive) and the IC50 [17] was > 100 µM (inactive).

In the case of `CCN1CCN(CCNC(=O)c2cn(Cc3ccccc3F)nn2)CC1`, the EC50 (Ion channel NompC) is reported as > 29.9 µM (inactive) and the EC50 (Mucolipin-3) is reported as > 29.9 µM (not active).
